Publication PMC9231160, “Monoterpenoid Glycosides from the Leaves of Ligustrum robustum and Their Bioactivities” (Molecules, 2022)
“Also recorded” adds a separate entry of the source.

What was measured:
[1] = DPPH radical scavenging assay; details: mean ± SD (n = 3), NA = no activity
Description: Statistical analyses were carried out on GraphPad Prism 5.01. All samples were measured in triplicate. The IC50 (the final concentration of sample needed to inhibit 50% of enzyme activity or scavenge 50% of free radical) was obtained by plotting the inhibition or scavenging percentage of each sample against its concentration. The results are reported as mean ± standard deviation (SD). Differences of means between groups were analyzed by one-way analysis of variance (ANOVA) on statistical package SPSS 13.0. The differences between groups were believed to be significant when p < 0.05.
(§1) S1.3. Determination of α-amylase inhibitory activity.
Phosphate buffer (20 mM, pH 6.9, containing 6 mM NaCl) was used as the solvent in this assay. Sample solution (50 μL, 50-1500 μM) and starch solution (50 μL, 1%, w/v) were mixed and incubated in a 96-well microplate at 37 °C for 10 min.
Then, α-amylase solution (50 μL, 0.2 U/mL) was added and the mixture was incubated at 37 °C for an additional 10 min. […] When the reaction solution cooled to room temperature, all samples were diluted by adding distilled water (50 μL), and then their absorbance was measured using a microplate reader at 540 nm. All samples had little background absorbance (phosphate buffer instead of starch solution) at 540 nm, thus the inhibitory activity was calculated as (Acontrol - Asample)/Acontrol × 100%, in which Asample was the absorbance of the sample and Acontrol was the absorbance of the phosphate buffer control without test samples. […]
The DPPH radical scavenging assay was used to evaluate the antioxidant activity of compounds 1-11. […] The absorbance of the reaction mixture was measured at 517 nm using a microplate reader. The DPPH scavenging activity was calculated by the following formula: DPPH scavenging activity (%) = (Acontrol - Asample)/Acontrol × 100%, where Acontrol was the absorbance of ethanol control without samples, Asample was the absorbance of sample. […]

[2] = ABTS radical scavenging assay; details: mean ± SD (n = 3)
Description: All samples were measured in triplicate. […] Differences of means between groups were analyzed by one-way analysis of variance (ANOVA) on statistical package SPSS 13.0. The differences between groups were believed to be significant when p < 0.05. […]
(§2) S1.4. DPPH radical scavenging assay […]
S1.5. ABTS radical scavenging assay
The ABTS radical scavenging assay was used also to evaluate the antioxidant
The ABTS free radical cation (ABTS•+ ) was
manufactured by reacting ABTS stock solution (7 mM) with potassium persulphate

[3] = target: T1, fatty acid synthase (FAS) (Gallus gallus, UniProt P12276); experiment: FAS inhibitory activity; format: biochemical, chicken; details: for IC50: FAS isolated from chicken liver, mean ± SD (n = 3), NA = no activity; for FAS inhibitory activity (in words): qualitative statement
T1 construct: isolated from chicken liver and kept in ice-bath; from tissue; host or cells: chicken liver
Description: (§3) All samples were measured in triplicate. […] Differences of means between groups were analyzed by one-way analysis of variance (ANOVA) on statistical package SPSS 13.0. The differences between groups were believed to be significant when p < 0.05.
S1. Determination of bioactivities.
S1.1. Determination of FAS inhibitory activity. […]
diluted with potassium phosphate buffer (0.1 M, pH 7.0). Sample solution (100 μL, 20-2000 μM, 37 °C) and FAS substrates (1.8 mL, 37 °C) were mixed in a cuvette, and then FAS solution (100 μL, 37 °C, isolated from chicken liver and kept in ice-bath before use) was added. The absorbance of reaction mixture was monitored by a UV-vis spectrophotometer at 340 nm in 1 min. The inhibitory effect was calculated by the following equation: FAS inhibition (%) = (Acontrol - Asample)/Acontrol × 100%, where Acontrol represented the FAS activity in the control group (phosphate buffer instead of sample solution), Asample represented the FAS activity in the sample groups. The FAS activity was calculated as (A0 - A1)/1 min, in which A0 was the absorbance of the reaction mixture when the FAS was added, and A1 was the absorbance of the reaction mixture after reaction 1 min. Orlistat was used as the positive control.
FAS substrates: 0.1 M potassium phosphate buffer (pH 7.0), 1 mM ethylene-

[4] = tested on: α-Glucosidase from yeast; experiment: α-glucosidase inhibitory activity; format: biochemical; details: for α-Glucosidase Inhibition at 0.1 mM: mean ± SD (n = 3), NA = no activity
Description: as §3
S1. Determination of bioactivities. […]
S1.2. Determination of α-glucosidase inhibitory activity. […]
diluted with phosphate buffer (0.1 M, pH 6.8). […]
and 4-nitrophenyl α-D-glucopyranoside (pNPG) solution (50 μL, 5 mM) were mixed and incubated in a 96-well microplate at 37 °C for 5 min. α-Glucosidase from yeast (50 μL, 0.2 U/mL) was added and incubated at 37 °C for another 30 min. Finally, 50 μL of Na2CO3 (1M) was added to terminate the reaction. The absorbance of mixture was measured using a microplate reader at a wavelength 405 nm. […]
following equation: α-glucosidase inhibition (%) = (Acontrol - Asample)/Acontrol × 100%, where Acontrol represented the absorbance of phosphate buffer control without test samples, Asample represented the absorbance of test samples. Acarbose was used as the […]

[5] = tested on: α-amylase; experiment: α-amylase inhibitory activity; format: biochemical; details: for α-Amylase Inhibition at 0.1 mM: mean ± SD (n = 3), NA = no activity
Description: as §3, §1
Phosphate buffer (20 mM, pH 6.9, containing 6 mM NaCl) was used as the […]
μL, 1%, w/v) were mixed and incubated in a 96-well microplate at 37 °C for 10 min.
Then, α-amylase solution (50 μL, 0.2 U/mL) was added and the mixture was incubated at 37 °C for an additional 10 min. The reaction was stopped by addition of […]
microplate was immediately heated in 95 °C water bath for 10 min. When the reaction solution cooled to room temperature, all samples were diluted by adding distilled water (50 μL), and then their absorbance was measured using a microplate reader at […]
starch solution) at 540 nm, thus the inhibitory activity was calculated as (Acontrol - Asample)/Acontrol × 100%, in which Asample was the absorbance of the sample and Acontrol was the absorbance of the phosphate buffer control without test samples. Acarbose was used as the positive control.
as §2

[6] = qualitative statement, compared with positive control acarbose

T1 sequence (P12276 whole entry): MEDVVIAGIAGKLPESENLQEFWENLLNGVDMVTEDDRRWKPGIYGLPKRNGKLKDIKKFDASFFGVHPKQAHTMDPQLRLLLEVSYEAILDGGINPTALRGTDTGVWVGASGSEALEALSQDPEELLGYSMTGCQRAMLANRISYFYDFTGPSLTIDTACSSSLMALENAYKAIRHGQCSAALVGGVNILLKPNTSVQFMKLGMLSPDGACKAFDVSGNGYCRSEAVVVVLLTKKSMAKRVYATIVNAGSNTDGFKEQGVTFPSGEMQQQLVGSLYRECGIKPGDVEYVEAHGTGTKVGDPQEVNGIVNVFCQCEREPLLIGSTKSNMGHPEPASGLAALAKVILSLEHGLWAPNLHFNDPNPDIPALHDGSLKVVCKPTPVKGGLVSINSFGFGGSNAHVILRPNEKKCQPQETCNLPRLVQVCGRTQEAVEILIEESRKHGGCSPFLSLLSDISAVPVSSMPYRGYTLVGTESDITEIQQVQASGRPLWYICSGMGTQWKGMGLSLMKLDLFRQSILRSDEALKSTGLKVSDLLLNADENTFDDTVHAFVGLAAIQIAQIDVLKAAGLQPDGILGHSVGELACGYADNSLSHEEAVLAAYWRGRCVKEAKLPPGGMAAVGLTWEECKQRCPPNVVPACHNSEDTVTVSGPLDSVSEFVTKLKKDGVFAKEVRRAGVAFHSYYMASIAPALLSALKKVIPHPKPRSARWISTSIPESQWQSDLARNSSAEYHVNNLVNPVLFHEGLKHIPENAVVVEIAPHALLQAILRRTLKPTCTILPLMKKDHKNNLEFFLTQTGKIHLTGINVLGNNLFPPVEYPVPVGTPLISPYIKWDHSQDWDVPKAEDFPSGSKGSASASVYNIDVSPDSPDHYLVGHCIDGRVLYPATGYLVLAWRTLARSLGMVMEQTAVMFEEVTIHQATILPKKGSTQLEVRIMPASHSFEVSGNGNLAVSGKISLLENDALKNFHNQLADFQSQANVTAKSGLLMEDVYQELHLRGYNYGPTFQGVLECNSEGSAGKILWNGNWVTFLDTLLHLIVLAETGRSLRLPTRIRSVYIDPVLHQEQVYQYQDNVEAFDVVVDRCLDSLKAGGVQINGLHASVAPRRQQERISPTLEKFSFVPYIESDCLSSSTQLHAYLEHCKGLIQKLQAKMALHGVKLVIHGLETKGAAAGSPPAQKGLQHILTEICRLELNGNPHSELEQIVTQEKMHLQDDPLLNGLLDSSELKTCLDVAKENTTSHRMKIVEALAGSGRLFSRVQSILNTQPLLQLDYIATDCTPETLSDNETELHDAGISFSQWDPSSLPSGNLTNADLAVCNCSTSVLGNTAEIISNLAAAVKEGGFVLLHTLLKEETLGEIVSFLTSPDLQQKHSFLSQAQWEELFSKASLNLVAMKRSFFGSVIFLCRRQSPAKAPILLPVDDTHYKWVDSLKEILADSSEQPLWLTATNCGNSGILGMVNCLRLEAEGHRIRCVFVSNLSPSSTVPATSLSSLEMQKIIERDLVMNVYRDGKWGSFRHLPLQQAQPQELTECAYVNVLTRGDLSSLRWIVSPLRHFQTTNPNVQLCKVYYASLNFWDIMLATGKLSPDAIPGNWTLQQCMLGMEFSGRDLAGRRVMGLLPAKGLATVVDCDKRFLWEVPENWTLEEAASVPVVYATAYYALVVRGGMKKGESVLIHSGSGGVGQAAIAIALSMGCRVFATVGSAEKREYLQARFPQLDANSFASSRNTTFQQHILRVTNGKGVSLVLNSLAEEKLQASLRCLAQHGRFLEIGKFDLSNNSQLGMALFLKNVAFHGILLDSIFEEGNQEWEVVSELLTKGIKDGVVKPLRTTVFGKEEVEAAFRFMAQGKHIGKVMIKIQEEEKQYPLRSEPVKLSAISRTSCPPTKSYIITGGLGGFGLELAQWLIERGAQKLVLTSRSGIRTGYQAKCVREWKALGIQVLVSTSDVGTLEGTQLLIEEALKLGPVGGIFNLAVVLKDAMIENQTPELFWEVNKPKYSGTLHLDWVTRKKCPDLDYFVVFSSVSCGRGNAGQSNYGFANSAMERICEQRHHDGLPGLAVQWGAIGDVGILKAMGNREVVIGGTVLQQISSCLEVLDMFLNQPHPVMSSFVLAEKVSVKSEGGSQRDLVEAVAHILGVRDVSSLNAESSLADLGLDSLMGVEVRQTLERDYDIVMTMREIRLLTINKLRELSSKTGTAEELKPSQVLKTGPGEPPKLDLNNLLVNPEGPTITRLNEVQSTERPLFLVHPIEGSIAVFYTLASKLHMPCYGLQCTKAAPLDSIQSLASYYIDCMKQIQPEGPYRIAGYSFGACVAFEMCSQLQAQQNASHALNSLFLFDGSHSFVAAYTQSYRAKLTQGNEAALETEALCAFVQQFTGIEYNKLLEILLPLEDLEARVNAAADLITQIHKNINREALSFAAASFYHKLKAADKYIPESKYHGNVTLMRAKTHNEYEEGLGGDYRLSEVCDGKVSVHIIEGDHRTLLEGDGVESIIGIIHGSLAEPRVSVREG

Row | IC50 [1] | SMILES | IC50 [2] | IC50 [3] | FAS inhibitory activity (in words) [3] | α-Glucosidase Inhibition at 0.1 mM [4] | α-glucosidase inhibitory effect (in words) [4, 6] | α-Amylase Inhibition at 0.1 mM [5] | α-amylase inhibitory effect (in words) [5, 6]
1 | 19.7 ± 0.23 µM | C=CC(C)(CCC=C(C)C)O[C@@H]1O[C@H](CO)[C@@H](OC(=O)/C=C/c2ccc(O)c(O)c2)[C@H](O[C@@H]2O[C@@H](C)[C@H](O)[C@@H](O)[C@H]2O)[C@H]1O (mixture of isomers) [Compound 1, 3(R)- and 3(S)-linaloyl-(3-O-α-L-rhamnopyranosyl)-(4-O-trans-caffeoyl)-O-β-D-glucopyranoside] | 6.91 ± 0.1 µM | – | – | – | – | – | –
2 | – | C=CC(C)(CCC(O)C(=C)C)O[C@@H]1O[C@H](COC(=O)/C=C/c2ccc(O)cc2)[C@@H](O)[C@H](O[C@@H]2O[C@@H](C)[C@H](O)[C@@H](O)[C@H]2O)[C@H]1O (stereo partly drawn) [Compound 3, 3-(3,6-dihydroxy-3,7-dimethyl-octa-1,7-dienyl)-(3-O-α-L-rhamnopyranosyl)-(6-O-trans-p-coumaroyl)-O-β-D-glucopyranoside] | 16 ± 0.69 µM | 21.8 ± 0.38 µM | – | 27.3 ± 0.3 c % | – | 32.5 ± 6.3 b % | –
3 | – | C=CC(C)(CCC(O)C(C)(C)O)OC1OC(COC(=O)C=Cc2ccc(O)cc2)C(O)C(OC2OC(C)C(O)C(O)C2O)C1O (centres unmarked) [Compound 4] | 9.66 ± 0.17 µM | > 100 µM | – | – | – | 28.2 ± 3.9 b % | –
4 | – | C=CC(C)(C/C=C/C(C)(C)OC)O[C@@H]1O[C@H](COC(=O)/C=C/c2ccc(O)cc2)[C@@H](O)[C@H](O[C@@H]2O[C@@H](C)[C@H](O)[C@@H](O)[C@H]2O)[C@H]1O (stereo partly drawn) [Compound 5, (5E)-3-(3-hydroxy-7-methoxy-3,7-dimethyl-octa-1,5-dienyl)-(3-O-α-L-rhamnopyranosyl)-(6-O-trans-p-coumaroyl)-O-β-D-glucopyranoside] | 6.93 ± 0.01 µM | 23.7 ± 0.45 µM | – | 13.8 ± 2.0 d % | – | 35.6 ± 2.0 b % | –
5 | – | C=CC(C)(CCC=C(C)C)O[C@@H]1O[C@H](CO)[C@@H](OC(=O)/C=C/c2ccc(O)cc2)[C@H](O[C@@H]2O[C@@H](C)[C@H](O[C@@H]3O[C@@H](C)[C@H](O)[C@@H](O)[C@H]3O)[C@@H](O)[C@H]2O)[C@H]1O (stereo partly drawn) [Compound 6, linaloyl-[3-O-α-L-rhamnopyranosyl-(1→4)-α-L-rhamnopyranosyl]-(4-O-trans-p-coumaroyl)-O-β-D-glucopyranoside] | 11.3 ± 0.16 µM | 4.78 ± 0.14 µM | strong FAS inhibitory activity | 12.0 ± 1.7 d % | – | 26.1 ± 3.0 b % | –
6 | – | C=CC(C)(CCC=C(C)C)O[C@@H]1O[C@H](CO)[C@@H](OC(=O)/C=C\c2ccc(O)cc2)[C@H](O[C@@H]2O[C@@H](C)[C@H](O[C@@H]3O[C@@H](C)[C@H](O)[C@@H](O)[C@H]3O)[C@@H](O)[C@H]2O)[C@H]1O (stereo partly drawn) [Compound 7, linaloyl-[3-O-α-L-rhamnopyranosyl-(1→4)-α-L-rhamnopyranosyl]-(4-O-cis-p-coumaroyl)-O-β-D-glucopyranoside] | 20.2 ± 0.33 µM | > 100 µM | – | – | – | – | –
7 | – | COC(C)(C)C=CCC(C)=CCOC1OC(COC(=O)C=Cc2ccc(O)cc2)C(O)C(OC2OC(C)C(O)C(O)C2O)C1O (centres unmarked) [Compound 8] | 19.5 ± 0.46 µM | 25.8 ± 0.47 µM | – | 24.7 ± 3.5 c % | – | 31.4 ± 1.9 b % | –
8 | – | C=C(C)C(O)CCC(C)=CCOC1OC(CO)C(OC(=O)C=Cc2ccc(O)cc2)C(OC2OC(C)C(O)C(O)C2O)C1O (centres unmarked) [Compound 9] | 18.7 ± 0.47 µM | 21.7 ± 0.46 µM | – | 12.4 ± 5.6 d % | – | 29.2 ± 8.4 b % | –
9 | – | CC(C)=CCC/C(C)=C/CO[C@@H]1O[C@H](CO)[C@@H](OC(=O)/C=C/c2ccc(O)cc2)[C@H](O[C@@H]2O[C@@H](C)[C@H](O)[C@@H](O)[C@H]2O)[C@H]1O [Compound 10, ligurobustoside C] | 15.1 ± 0.1 µM | 4.68 ± 0.16 µM | strong FAS inhibitory activity | 28.7 ± 2.1 c % | – | – | –
10 | – | CC(=CCOC1OC(CO)C(OC(=O)C=Cc2ccc(O)cc2)C(OC2OC(C)C(O)C(O)C2O)C1O)CCC(O)C(C)(C)O (centres unmarked) [Compound 11] | 7.92 ± 0.23 µM | 61.74 ± 0.45 µM | – | – | – | 31.3 ± 1.3 b % | –
11 | 13.66 ± 0.13 µM | O=C1O[C@H]([C@@H](O)CO)C(O)=C1O [L-(+)-ascorbic acid, reference compound] | – | – | – | – | – | – | –

Row | SMILES | IC50 [1] | IC50 [2] | IC50 [3] | FAS inhibitory activity (in words) [3] | α-Glucosidase Inhibition at 0.1 mM [4] | α-glucosidase inhibitory effect (in words) [4, 6] | α-Amylase Inhibition at 0.1 mM [5] | α-amylase inhibitory effect (in words) [5, 6]
12 | C=CC(C)(CCC=C(C)C)O[C@@H]1O[C@H](COC(=O)/C=C/c2ccc(O)cc2)[C@@H](O)[C@H](O[C@@H]2O[C@@H](C)[C@H](O)[C@@H](O)[C@H]2O)[C@H]1O (mixture of isomers) [Compound 2, 3(R)- and 3(S)-linaloyl-(3-O-α-L-rhamnopyranosyl)-(6-O-trans-p-coumaroyl)-O-β-D-glucopyranoside] | > 250 µM | 9.41 ± 0.22 µM | 2.36 ± 0.1 µM | strong FAS inhibitory activity | 48.1 ± 4.3 b % | weaker α-glucosidase inhibitory effect than the positive control acarbose; also recorded: moderate | 31.5 ± 0.5 b % | moderate
